Laboratory results taken from ChEMBL document CHEMBL4765227, “Hit to lead optimization of a series of N-[4-(1,3-benzothiazol-2-yl)phenyl]acetamides as monoacylglycerol lipase inhibitors with potential anticancer activity” (Eur J Med Chem, 2016).

Experiments:
Assay type in all cases: functional
Details in all cases: read-out: GI
CCRF-CEM = assay: Growth inhibition of human CCRF-CEM cells at 10 uM incubated for 48 hrs by sulforhodamine B assay relative to control
HL-60(TB) = assay: Growth inhibition of human HL-60(TB) cells at 10 uM incubated for 48 hrs by sulforhodamine B assay relative to control
RPMI-8226 = assay: Growth inhibition of human RPMI-8226 cells at 10 uM incubated for 48 hrs by sulforhodamine B assay relative to control
SR = assay: Growth inhibition of human SR cells at 10 uM incubated for 48 hrs by sulforhodamine B assay relative to control
A549 = assay: Growth inhibition of human A549/ATCC cells at 10 uM incubated for 48 hrs by sulforhodamine B assay relative to control
HOP-92 = assay: Growth inhibition of human HOP-92 cells at 10 uM incubated for 48 hrs by sulforhodamine B assay relative to control
NCI-H226 = assay: Growth inhibition of human NCI-H226 cells at 10 uM incubated for 48 hrs by sulforhodamine B assay relative to control
NCI-H23 = assay: Growth inhibition of human NCI-H23 cells at 10 uM incubated for 48 hrs by sulforhodamine B assay relative to control
NCI-H322M = assay: Growth inhibition of human NCI-H322M cells at 10 uM incubated for 48 hrs by sulforhodamine B assay relative to control
NCI-H460 = assay: Growth inhibition of human NCI-H460 cells at 10 uM incubated for 48 hrs by sulforhodamine B assay relative to control
NCI-H522 = assay: Growth inhibition of human NCI-H522 cells at 10 uM incubated for 48 hrs by sulforhodamine B assay relative to control
COLO 205 = assay: Growth inhibition of human COLO 205 cells at 10 uM incubated for 48 hrs by sulforhodamine B assay relative to control
HCC 2998 = assay: Growth inhibition of human HCC 2998 cells at 10 uM incubated for 48 hrs by sulforhodamine B assay relative to control
HCT-116 = assay: Growth inhibition of human HCT-116 cells at 10 uM incubated for 48 hrs by sulforhodamine B assay relative to control
HCT-15 = assay: Growth inhibition of human HCT-15 cells at 10 uM incubated for 48 hrs by sulforhodamine B assay relative to control
HT-29 = assay: Growth inhibition of human HT-29 cells at 10 uM incubated for 48 hrs by sulforhodamine B assay relative to control
KM12 = assay: Growth inhibition of human KM12 cells at 10 uM incubated for 48 hrs by sulforhodamine B assay relative to control
SW-620 = assay: Growth inhibition of human SW-620 cells at 10 uM incubated for 48 hrs by sulforhodamine B assay relative to control
SF-268 = assay: Growth inhibition of human SF-268 cells at 10 uM incubated for 48 hrs by sulforhodamine B assay relative to control
SF-295 = assay: Growth inhibition of human SF-295 cells at 10 uM incubated for 48 hrs by sulforhodamine B assay relative to control
SF-539 = assay: Growth inhibition of human SF-539 cells at 10 uM incubated for 48 hrs by sulforhodamine B assay relative to control
SNB-19 = assay: Growth inhibition of human SNB-19 cells at 10 uM incubated for 48 hrs by sulforhodamine B assay relative to control
U-251 = assay: Growth inhibition of human U-251 cells at 10 uM incubated for 48 hrs by sulforhodamine B assay relative to control
LOX IMVI = assay: Growth inhibition of human LOX IMVI cells at 10 uM incubated for 48 hrs by sulforhodamine B assay relative to control
M14 = assay: Growth inhibition of human M14 cells at 10 uM incubated for 48 hrs by sulforhodamine B assay relative to control
MDA-MB-435 = assay: Growth inhibition of human MDA-MB-435 cells at 10 uM incubated for 48 hrs by sulforhodamine B assay relative to control
SK-MEL-5 = assay: Growth inhibition of human SK-MEL-5 cells at 10 uM incubated for 48 hrs by sulforhodamine B assay relative to control
UACC-257 = assay: Growth inhibition of human UACC-257 cells at 10 uM incubated for 48 hrs by sulforhodamine B assay relative to control
UACC-62 = assay: Growth inhibition of human UACC-62 cells at 10 uM incubated for 48 hrs by sulforhodamine B assay relative to control
OVCAR-4 = assay: Growth inhibition of human OVCAR-4 cells at 10 uM incubated for 48 hrs by sulforhodamine B assay relative to control
OVCAR-5 = assay: Growth inhibition of human OVCAR-5 cells at 10 uM incubated for 48 hrs by sulforhodamine B assay relative to control
OVCAR-8 = assay: Growth inhibition of human OVCAR-8 cells at 10 uM incubated for 48 hrs by sulforhodamine B assay relative to control
SK-OV-3 = assay: Growth inhibition of human SK-OV-3 cells at 10 uM incubated for 48 hrs by sulforhodamine B assay relative to control
ACHN = assay: Growth inhibition of human ACHN cells at 10 uM incubated for 48 hrs by sulforhodamine B assay relative to control
RXF 393 = assay: Growth inhibition of human RXF 393 cells at 10 uM incubated for 48 hrs by sulforhodamine B assay relative to control
SN12C = assay: Growth inhibition of human SN12C cells at 10 uM incubated for 48 hrs by sulforhodamine B assay relative to control
TK-10 = assay: Growth inhibition of human TK-10 cells at 10 uM incubated for 48 hrs by sulforhodamine B assay relative to control
UO-31 = assay: Growth inhibition of human UO-31 cells at 10 uM incubated for 48 hrs by sulforhodamine B assay relative to control
PC-3 = assay: Growth inhibition of human PC-3 cells at 10 uM incubated for 48 hrs by sulforhodamine B assay relative to control
DU-145 = assay: Growth inhibition of human DU-145 cells at 10 uM incubated for 48 hrs by sulforhodamine B assay relative to control
MDA-MB-231 = assay: Growth inhibition of human MDA-MB-231 cells at 10 uM incubated for 48 hrs by sulforhodamine B assay relative to control
Hs-578T = assay: Growth inhibition of human Hs-578T cells at 10 uM incubated for 48 hrs by sulforhodamine B assay relative to control
T47D = assay: Growth inhibition of human T47D cells at 10 uM incubated for 48 hrs by sulforhodamine B assay relative to control
MDA-MB-468 = assay: Growth inhibition of human MDA-MB-468 cells at 10 uM incubated for 48 hrs by sulforhodamine B assay relative to control

SMILES: Cc1cc(C)n(CC(=O)Nc2ccc(-c3nc4ccccc4s3)cc2)n1
- inhibition of growth at 10 µM (CCRF-CEM): 1.49%
- inhibition of growth at 10 µM (HL-60(TB)): -2.97%
- inhibition of growth at 10 µM (RPMI-8226): 2.85%
- inhibition of growth at 10 µM (SR): 0.6%
- inhibition of growth at 10 µM (A549): 5.29%
- inhibition of growth at 10 µM (HOP-92): 2.31%
- inhibition of growth at 10 µM (NCI-H226): -0.25%
- inhibition of growth at 10 µM (NCI-H23): 6.19%
- inhibition of growth at 10 µM (NCI-H322M): 0.12%
- inhibition of growth at 10 µM (NCI-H460): -2.37%
- inhibition of growth at 10 µM (NCI-H522): -2.77%
- inhibition of growth at 10 µM (COLO 205): -12.4%
- inhibition of growth at 10 µM (HCC 2998): 7.15%
- inhibition of growth at 10 µM (HCT-116): -7.45%
- inhibition of growth at 10 µM (HCT-15): -5.24%
- inhibition of growth at 10 µM (HT-29): -8.3%
- inhibition of growth at 10 µM (KM12): -0.27%
- inhibition of growth at 10 µM (SW-620): -13.1%
- inhibition of growth at 10 µM (SF-268): -0.26%
- inhibition of growth at 10 µM (SF-295): -3.17%
- inhibition of growth at 10 µM (SF-539): 1.4%
- inhibition of growth at 10 µM (SNB-19): 0.22%
- inhibition of growth at 10 µM (U-251): 10.3%
- inhibition of growth at 10 µM (LOX IMVI): 2.33%
- inhibition of growth at 10 µM (M14): -11.3%
- inhibition of growth at 10 µM (MDA-MB-435): -7.5%
- inhibition of growth at 10 µM (SK-MEL-5): 3.6%
- inhibition of growth at 10 µM (UACC-257): -7.21%
- inhibition of growth at 10 µM (UACC-62): 4.67%
- inhibition of growth at 10 µM (OVCAR-4): 2.19%
- inhibition of growth at 10 µM (OVCAR-5): -4.65%
- inhibition of growth at 10 µM (OVCAR-8): 0.31%
- inhibition of growth at 10 µM (SK-OV-3): -14%
- inhibition of growth at 10 µM (ACHN): -14.4%
- inhibition of growth at 10 µM (RXF 393): -29%
- inhibition of growth at 10 µM (SN12C): -2.13%
- inhibition of growth at 10 µM (TK-10): -6.36%
- inhibition of growth at 10 µM (UO-31): 16.2%
- inhibition of growth at 10 µM (PC-3): 13.2%
- inhibition of growth at 10 µM (DU-145): -2.89%
- inhibition of growth at 10 µM (MDA-MB-231): -7.87%
- inhibition of growth at 10 µM (Hs-578T): -13.4%
- inhibition of growth at 10 µM (T47D): 6.7%
- inhibition of growth at 10 µM (MDA-MB-468): 103%

SMILES: O=C(Cn1cncn1)Nc1ccc(-c2nc3ccccc3s2)cc1
- inhibition of growth at 10 µM (CCRF-CEM): -4.97%
- inhibition of growth at 10 µM (HL-60(TB)): -2.11%
- inhibition of growth at 10 µM (RPMI-8226): 16.8%
- inhibition of growth at 10 µM (SR): 16.2%
- inhibition of growth at 10 µM (A549): 11.9%
- inhibition of growth at 10 µM (HOP-92): 6.49%
- inhibition of growth at 10 µM (NCI-H226): 25%
- inhibition of growth at 10 µM (NCI-H23): 12.5%
- inhibition of growth at 10 µM (NCI-H322M): -0.63%
- inhibition of growth at 10 µM (NCI-H460): 2.97%
- inhibition of growth at 10 µM (NCI-H522): 12.5%
- inhibition of growth at 10 µM (COLO 205): -6.86%
- inhibition of growth at 10 µM (HCC 2998): 6.06%
- inhibition of growth at 10 µM (HCT-116): 4.58%
- inhibition of growth at 10 µM (HCT-15): -1.4%
- inhibition of growth at 10 µM (HT-29): -4.68%
- inhibition of growth at 10 µM (KM12): 1.84%
- inhibition of growth at 10 µM (SW-620): -6.34%
- inhibition of growth at 10 µM (SF-268): 2.87%
- inhibition of growth at 10 µM (SF-295): 8.06%
- inhibition of growth at 10 µM (SF-539): -7.74%
- inhibition of growth at 10 µM (SNB-19): 6.99%
- inhibition of growth at 10 µM (U-251): 10%
- inhibition of growth at 10 µM (LOX IMVI): 0.66%
- inhibition of growth at 10 µM (M14): -11.2%
- inhibition of growth at 10 µM (MDA-MB-435): -4.86%
- inhibition of growth at 10 µM (SK-MEL-5): 13.3%
- inhibition of growth at 10 µM (UACC-257): -2.17%
- inhibition of growth at 10 µM (UACC-62): 4.77%
- inhibition of growth at 10 µM (OVCAR-4): 19.4%
- inhibition of growth at 10 µM (OVCAR-5): -15%
- inhibition of growth at 10 µM (OVCAR-8): 5.43%
- inhibition of growth at 10 µM (SK-OV-3): 0.14%
- inhibition of growth at 10 µM (ACHN): -10.5%
- inhibition of growth at 10 µM (RXF 393): -25.3%
- inhibition of growth at 10 µM (SN12C): 4.85%
- inhibition of growth at 10 µM (TK-10): -6.22%
- inhibition of growth at 10 µM (UO-31): 23.1%
- inhibition of growth at 10 µM (PC-3): 14.2%
- inhibition of growth at 10 µM (DU-145): 5.46%
- inhibition of growth at 10 µM (MDA-MB-231): 3.55%
- inhibition of growth at 10 µM (Hs-578T): -3.42%
- inhibition of growth at 10 µM (T47D): 35.1%
- inhibition of growth at 10 µM (MDA-MB-468): 130%
